This test has as its system T-HEp3 cells. Kind of test: P-ERK/ERK Western blotting after peptide treatment. Type of test: cell-based, human. From the text:
FIGS. 6A-E show ERK activation and growth in vivo. In FIG. 6A, HEK293 and D-Hep3 cells transfected with uPAR^wt produces stronger activation of ERK than cells transfected with uPAR^S245A or with vector (top and middle panels); HEK293, and D-HEp3 cells, transiently transfected with pcDNA3.1 vector, or with an expression construct for uPAR^wt or uPAR^S245A lysed 48 hrs later and analyzed by Western blotting for phospho-ERK (FIG. 6A, top panels) and ERK 1/2 (FIG. 6A, middle panels) with specific antibodies. The bands were scanned with NIH Image and plotted. The ratio of phospho-ERK to ERK was calculated and expressed as a fraction of the ratio of pcDNA3.1 transfected cells. In FIG. 6A (bottom panels), uPAR^wt and uPAR^S245A expression was determined by Western blotting. […] D-HEp3 cells transfected with vector, or uPAR^wt or uPAR^S245A were detached with EDTA 36 hrs after transfection and 7×10^5 cells in 30 μl PBS were inoculated onto chorioallantoic membranes (“CAMs”) of 10-day old chick embryos. Each sample was inoculated onto 4 CAMs. The CAMs were excised 4 days later and the number of tumor cells was determined as in the Examples. The bars show mean and standard deviation. Paired t-test vector/uPAR^S245A p=0.76, vector/uPAR^wt p=0.0005, uPAR^S245/uPAR^wt p=0.0002. Inset: uPAR expression detected by Western blot with R2 antibody. In FIG. 6C, peptide 240-248, but not peptide 17-24, down regulates P-ERK level. T-HEp3 cells were serum-starved and treated in serum-free medium with 25 μM of peptides 240-248 and 17-24 for 45 min and 3 hrs. The cells were lysed and the lysates were analyzed for P-ERK (FIG. 6C, upper panel) and total ERK (FIG. 6C, lower panel) by Western blotting. FIG. 6D is a graph showing that S245A mutant peptide has no effect on ERK activation. T-HEp3 cells were treated with 5, 20, and 40 μM peptides 240-248 ([…]), 17-24 (▪), and S245A (▾) for 1 hr. The cells were processed as in FIG. 6C, except that the bands were scanned by NIH Image the P-ERK/ERK ratio was calculated. […] Sub-confluent T-ELK:GFP cells grown in 48-well plate and serum-starved overnight were incubated with the uPAR peptides 240-248 at 5 and 25 μM and with 17-24 peptide at 25 μM for 40 hrs at 37° C. in serum-free medium. The cells were detached and analyzed for GFP in FACS Canto using FACSDiva software. The numbers represent GFP-positive cells as percent of total. The dose-response for peptide 240-248 and highest concentration of peptides 17-24 and S245A were repeated two additional times with similar results.
To test the effect of uPAR/integrin inhibiting peptides on ERK activity, T-HEp3 cells transfected with two plasmids that report through GFP level on the state of ERK activation and designated T-ELK (Aguirre-Ghiso et al., Cancer Res. 63:1684-1695 (2003), which is hereby incorporated by reference in its entirety) were plated in 48-well plates, serum-starved overnight, and treated (in duplicates) with 5 and 25 μM of uPAR-derived synthetic peptides (240-248) or 25 μM (17-24) in DMEM for 42 hrs. Untreated cells served as positive control and cells not expressing GFP as negative control. The cells were detached and analyzed for GFP by FACS analysis using FACS Canto (Becton Dickinson, Calif.) and FACSDiva software. Alternatively, T-HEp3 cells, serum-starved overnight were incubated in serum-free medium with 5, 20, and 40 μM of uPAR-derived synthetic peptide 240-248, 17-24, or S245A for 1 hr or with 25 μM peptide 240-248 and 17-24 for 10 min, 45 min, and 3 hrs at 37° C. The cells were lysed in RIPA buffer and processed as described above. Concentration dependence of P-ERK inhibition was analyzed by scanning P-ERK and ERK bands with NIH-Image and expressing their ratios as % of the ratio in untreated control (T-HEp3) cells.
For orientation: Immunoblotting shows a protein as a band on a membrane.

Setting [1] is: 25 μM peptide, 45 and 180 min, serum-starved.
Where [2] appears, read: 25 μM peptide, 10 min, serum-starved.

With “peptide 17-24: synthetic uPAR-derived peptide, domain I amino acid 17-24: CALGQDLC (SEQ ID NO:5); negative control [reference compound]”, the P-ERK level entry under setting [1] is given as “minimal or no effect”; the P-ERK level result under setting [2] is on record as “only a minor effect”; the P-ERK level entry (5, 20 and 40 μM peptide, 1 hr) was “minor and inconsistent effects”.

Consider “peptide 240-248: synthetic uPAR-derived peptide, domain III residues 240-248: GCATASMCQ (SEQ ID NO:9)”, for which the P-ERK level result under setting [1] is “strong reduction in P-ERK level”; the P-ERK level result under setting [2] was “only a minor effect”; the P-ERK level result (5, 20 and 40 μM peptide, 1 hr) is given as “reduced P-ERK level in a dose-dependent fashion”.

(Values after patent publication US20100249184A1, “INDUCTION AND/OR MAINTENANCE OF TUMOR DORMANCY BY DISRUPTION OF UROKINASE PLASMINOGEN ACTIVATOR RECEPTOR-INTEGRIN INTERACTION” (MOUNT SINAI SCHOOL OF MEDICINE, priority 2007, published 2010).)
